Experimental data taken from patent US10046060B2, “Co-administration of an agent linked to an internalization peptide with an anti-inflammatory” (NoNO Inc., priority 2007, dated 2018).
Ends that are not written are not given here.

Experiments:
[1] = test system: humans; experiment: Safety, Tolerability and Pharmacokinetic Study in humans: blood histamine; assay type: in vivo, human
Method: We carried out a Safety, Tolerability and Pharmacokinetic Study of Tat-NR2B9c in humans. Subjects were either normal, healthy, non-smoking males or post-menopausal or surgically sterile female subjects with a minimum age of 18 years. The subjects were either administered Tat-NR2B9c, Lot #: 124-134-001B, or were given placebo (Phosphate Buffered Saline), Lot #: 124-134-001A, administered as an intravenous infusion (10±1 minutes). Four subjects were dosed in each of Cohorts 1 to 3, and 10 subjects were dosed in each of Cohorts 4 to 8. All 62 subjects completed the study. Treatment periods for each cohort were as follows: Cohort 1: Sep. 14, 2006; Cohort 2: Sep. 26, 2006; Cohort 3: Oct. 6, 2006; Cohort 4: Oct. 20, 2006; Cohort 5: Nov. 6, 2006; Cohort 6: Dec. 4, 2006; Cohort 7: Dec. 17, 2006; Cohort 8: Feb. 25, 2007.
During the study period, 11 blood samples were collected for pharmacokinetic analysis from each subject at the following timepoints: 0.00 (pre-dose), 0.08 (5 minutes), 0.17 to 0.25 (10 to 15 minutes, precisely at the end of each individual drug infusion), 0.33 (20 minutes), 0.50, 0.75, 1.00, 2.00, 6.00, 12.00, and 24.00 hours post-dose. In addition, 8 blood samples were collected for histamine analysis from each subject at the following timepoints: 0.00 (pre-dose), and at 0.08 (5 minutes), 0.17 (10 minutes), 0.25, 0.50, 1.00, 2.00, and 24.00 hours post-dose.

[2] = Maximum Tolerated Dose in preclinical animal trials, dogs; conditions: dog, in vivo

YGRKKRRQRRRKLSSIESDV [Tat-NR2B9c]
Number of Subjects with Histamine levels >10 nmol/L ([1]; NA-1 0.75 mg/kg (n = 8), Day 1, 0.00 hr): 0
Number of Subjects with Histamine levels >10 nmol/L ([1]; NA-1 0.75 mg/kg (n = 8), Day 1, 0.08 hr): 0
Number of Subjects with Histamine levels >10 nmol/L ([1]; NA-1 0.75 mg/kg (n = 8), Day 1, 0.17 hr): 0
Number of Subjects with Histamine levels >10 nmol/L ([1]; NA-1 0.75 mg/kg (n = 8), Day 1, 0.25 hr): 0
Number of Subjects with Histamine levels >10 nmol/L ([1]; NA-1 0.75 mg/kg (n = 8), Day 1, 0.50 hr): 0
Number of Subjects with Histamine levels >10 nmol/L ([1]; NA-1 0.75 mg/kg (n = 8), Day 1, 1.00 hr): 0
Number of Subjects with Histamine levels >10 nmol/L ([1]; NA-1 0.75 mg/kg (n = 8), Day 1, 2.00 hr): 0
Number of Subjects with Histamine levels >10 nmol/L ([1]; NA-1 0.75 mg/kg (n = 8), Day 1, 24.00 hr): 0
Number of Subjects with Histamine levels >10 nmol/L ([1]; NA-1 0.75 mg/kg (n = 8), Day 7): 0
Number of Subjects with Histamine levels >10 nmol/L ([1]; NA-1 0.75 mg/kg (n = 8), Day 14): 0
Number of Subjects with Histamine levels >10 nmol/L ([1]; NA-1 0.75 mg/kg (n = 8), Day 28 End-of-study): 0
Number of Subjects with Histamine levels >10 nmol/L ([1]; NA-1 0.75 mg/kg (n = 8), Screening): 0
Number of Subjects with Histamine levels >10 nmol/L ([1]; NA-1 1.50 mg/kg (n = 8), Day 1, 0.00 hr): 0
Number of Subjects with Histamine levels >10 nmol/L ([1]; NA-1 1.50 mg/kg (n = 8), Day 1, 0.08 hr): 0
Number of Subjects with Histamine levels >10 nmol/L ([1]; NA-1 1.50 mg/kg (n = 8), Day 1, 0.17 hr): 0
Number of Subjects with Histamine levels >10 nmol/L ([1]; NA-1 1.50 mg/kg (n = 8), Day 1, 0.25 hr): 0
Number of Subjects with Histamine levels >10 nmol/L ([1]; NA-1 1.50 mg/kg (n = 8), Day 1, 0.50 hr): 0
Number of Subjects with Histamine levels >10 nmol/L ([1]; NA-1 1.50 mg/kg (n = 8), Day 1, 1.00 hr): 0
Number of Subjects with Histamine levels >10 nmol/L ([1]; NA-1 1.50 mg/kg (n = 8), Day 1, 2.00 hr): 0
Number of Subjects with Histamine levels >10 nmol/L ([1]; NA-1 1.50 mg/kg (n = 8), Day 1, 24.00 hr): 0
Number of Subjects with Histamine levels >10 nmol/L ([1]; NA-1 1.50 mg/kg (n = 8), Day 7): 0
Number of Subjects with Histamine levels >10 nmol/L ([1]; NA-1 1.50 mg/kg (n = 8), Day 14): 0
Number of Subjects with Histamine levels >10 nmol/L ([1]; NA-1 1.50 mg/kg (n = 8), Day 28 End-of-study): 0
Number of Subjects with Histamine levels >10 nmol/L ([1]; NA-1 1.50 mg/kg (n = 8), Screening): 0
Number of Subjects with Histamine levels >10 nmol/L ([1]; NA-1 2.60 mg/kg (n = 8), Day 1, 0.00 hr): 0
Number of Subjects with Histamine levels >10 nmol/L ([1]; NA-1 2.60 mg/kg (n = 8), Day 1, 0.08 hr): 0
Number of Subjects with Histamine levels >10 nmol/L ([1]; NA-1 2.60 mg/kg (n = 8), Day 1, 0.17 hr): 0
Number of Subjects with Histamine levels >10 nmol/L ([1]; NA-1 2.60 mg/kg (n = 8), Day 1, 0.25 hr): 0
Number of Subjects with Histamine levels >10 nmol/L ([1]; NA-1 2.60 mg/kg (n = 8), Day 1, 0.50 hr): 0
Number of Subjects with Histamine levels >10 nmol/L ([1]; NA-1 2.60 mg/kg (n = 8), Day 1, 1.00 hr): 0
Number of Subjects with Histamine levels >10 nmol/L ([1]; NA-1 2.60 mg/kg (n = 8), Day 1, 2.00 hr): 0
Number of Subjects with Histamine levels >10 nmol/L ([1]; NA-1 2.60 mg/kg (n = 8), Day 1, 24.00 hr): 0
Number of Subjects with Histamine levels >10 nmol/L ([1]; NA-1 2.60 mg/kg (n = 8), Day 7): 0
Number of Subjects with Histamine levels >10 nmol/L ([1]; NA-1 2.60 mg/kg (n = 8), Day 14): 0
Number of Subjects with Histamine levels >10 nmol/L ([1]; NA-1 2.60 mg/kg (n = 8), Day 28 End-of-study): 0
Number of Subjects with Histamine levels >10 nmol/L ([1]; NA-1 2.60 mg/kg (n = 8), Screening): 0
Number of Subjects with Histamine levels >10 nmol/L ([1]; NA-1 3.75 mg/kg (n = 8), Day 1, 0.00 hr): 0
Number of Subjects with Histamine levels >10 nmol/L ([1]; NA-1 3.75 mg/kg (n = 8), Day 1, 0.08 hr): 0
Number of Subjects with Histamine levels >10 nmol/L ([1]; NA-1 3.75 mg/kg (n = 8), Day 1, 0.17 hr (10 minutes)): 7 of the 8
Number of Subjects with Histamine levels >10 nmol/L ([1]; NA-1 3.75 mg/kg (n = 8), Day 1, 0.17 hr (10 minutes), listed as NA 1, 3.75 mg/kg): Seven of 8
Number of Subjects with Histamine levels >10 nmol/L ([1]; NA-1 3.75 mg/kg (n = 8), Day 1, 0.17 hr (10 minutes), listed as NA-1, 3.75 mg/kg): 7
Number of Subjects with Histamine levels >10 nmol/L ([1]; NA-1 3.75 mg/kg (n = 8), Day 1, 0.25 hr (15 minutes)): 3
Number of Subjects with Histamine levels >10 nmol/L ([1]; NA-1 3.75 mg/kg (n = 8), Day 1, 0.50 hr): 0
Number of Subjects with Histamine levels >10 nmol/L ([1]; NA-1 3.75 mg/kg (n = 8), Day 1, 1.00 hr): 0
Number of Subjects with Histamine levels >10 nmol/L ([1]; NA-1 3.75 mg/kg (n = 8), Day 1, 2.00 hr): 0
Number of Subjects with Histamine levels >10 nmol/L ([1]; NA-1 3.75 mg/kg (n = 8), Day 1, 24.00 hr): 0
Number of Subjects with Histamine levels >10 nmol/L ([1]; NA-1 3.75 mg/kg (n = 8), Day 7): 0
Number of Subjects with Histamine levels >10 nmol/L ([1]; NA-1 3.75 mg/kg (n = 8), Day 14): 0
Number of Subjects with Histamine levels >10 nmol/L ([1]; NA-1 3.75 mg/kg (n = 8), Day 28 End-of-study): 0
Number of Subjects with Histamine levels >10 nmol/L ([1]; NA-1 3.75 mg/kg (n = 8), Screening): 0
Time for abnormal histamine results to return to the normal range ([1]; after drug administration): ≤ 24.00 h
Abnormal histamine levels in other dose groups ([1]; dose groups other than 3.75 mg/kg): no treatment group had significant abnormal levels of histamine
MTD [2]: 12.5 mg/kg
